pIC50: −log10 of the molar value.
Biological target: NSD2 [1-1365] (Homo sapiens (Human), UniProt O96028)
Assay: LC-MS/MS-based NSD2 enzymatic assay (SAH production)
Type: biochemical
Settings: NSD2 biochemical activity, class symbols; read-out: NSD2 IC50
Method: LC-MS/MS-Based NSD2 Enzymatic Assay
This assay employed LC-MS/MS technology to monitor the SAH production from the NSD2 enzymatic reaction. The enzymatic reaction was performed in white proxiplate plus 384-well microplate (Perkin Elmer). The reaction mixture (10 μL) were composed of 8 nM NSD2 [1-1365], […] SAM (USB, 10601) and 400 nM nucleosome (purified from mouse liver) in reaction buffer (20 mM Tris-HCl, pH at 8.0, 0.01% Tween 20, 10 mM MgCl2, 50 mM NaCl, 1 mM DTT, 1 mM TCEP (pH7.5)). After 90 min incubation at room temperature, 3 μL quenching solution containing 2.5% TFA with 320 nM d4-SAH was added to stop the reaction.
For the inhibition assay, compound solutions were transferred into the wells by Mosquito™ (TTP LabTech). The inhibition assays were carried out by preincubating various concentrations of the inhibitor with 5 uL reaction mixture containing 16 nM NSD2 [1-1365] and 2 uM SAM (USB, 10601) in reaction buffer. After 20 min preincubation, 5 uL solution containing 800 nM nucleosome (purified from mouse liver) in reaction buffer was added to initiate the reaction. The reaction was stopped by 3 μL quenching solution containing 2.5% TFA with 320 nM d4-SAH after 90 min.
The SAH production from the enzymatic assays were monitored by LC-MS/MS on an API 4000 triple quadrupole mass spec with Turbolon Spray (Applied Biosystem) coupled with Prominenece UFLC(Shimazu). Liquid chromatography was performed on a Chromolith FastGradient HPLC column (RP-18e, 25-2 mm, from Merck) at a flow rate of 0.8 ml/min. The column was connected directly to the turbo ion electrospray operating in the positive-ion mode. Mobile phase A is 0.1% FA and 2% methanol in water and mobile phase B is 0.1% FA in ACN. Injection volume was 3 μl and the autosampler was kept at 4 degree. SAH and d4-SAH were simultaneously monitored. Data were acquired and processed by Analyst software.
To quantify the formed SAH, d4-SAH was added as internal standard (IS). A series of SAH (Sigma, A9384) solution at varying concentration (1-500 nM in reaction buffer) was mixed with quenching solution mentioned above. Then LC-MS/MS was carried out on API 4000 LC/MS/MS system to detect both SAH and d4-SAH. The plot of SAH peak area/IS peak area vs SAH concentration was used to generate the normalization factor of SAH. The SAH production from real enzymatic reaction was derived from the standard curve of SAH. The down-limit of our system for the detection of SAH is around 1-2 nM, and the linear range can reach up to 500 nM.

Chain of NSD2 [1-1365] (O96028 whole entry): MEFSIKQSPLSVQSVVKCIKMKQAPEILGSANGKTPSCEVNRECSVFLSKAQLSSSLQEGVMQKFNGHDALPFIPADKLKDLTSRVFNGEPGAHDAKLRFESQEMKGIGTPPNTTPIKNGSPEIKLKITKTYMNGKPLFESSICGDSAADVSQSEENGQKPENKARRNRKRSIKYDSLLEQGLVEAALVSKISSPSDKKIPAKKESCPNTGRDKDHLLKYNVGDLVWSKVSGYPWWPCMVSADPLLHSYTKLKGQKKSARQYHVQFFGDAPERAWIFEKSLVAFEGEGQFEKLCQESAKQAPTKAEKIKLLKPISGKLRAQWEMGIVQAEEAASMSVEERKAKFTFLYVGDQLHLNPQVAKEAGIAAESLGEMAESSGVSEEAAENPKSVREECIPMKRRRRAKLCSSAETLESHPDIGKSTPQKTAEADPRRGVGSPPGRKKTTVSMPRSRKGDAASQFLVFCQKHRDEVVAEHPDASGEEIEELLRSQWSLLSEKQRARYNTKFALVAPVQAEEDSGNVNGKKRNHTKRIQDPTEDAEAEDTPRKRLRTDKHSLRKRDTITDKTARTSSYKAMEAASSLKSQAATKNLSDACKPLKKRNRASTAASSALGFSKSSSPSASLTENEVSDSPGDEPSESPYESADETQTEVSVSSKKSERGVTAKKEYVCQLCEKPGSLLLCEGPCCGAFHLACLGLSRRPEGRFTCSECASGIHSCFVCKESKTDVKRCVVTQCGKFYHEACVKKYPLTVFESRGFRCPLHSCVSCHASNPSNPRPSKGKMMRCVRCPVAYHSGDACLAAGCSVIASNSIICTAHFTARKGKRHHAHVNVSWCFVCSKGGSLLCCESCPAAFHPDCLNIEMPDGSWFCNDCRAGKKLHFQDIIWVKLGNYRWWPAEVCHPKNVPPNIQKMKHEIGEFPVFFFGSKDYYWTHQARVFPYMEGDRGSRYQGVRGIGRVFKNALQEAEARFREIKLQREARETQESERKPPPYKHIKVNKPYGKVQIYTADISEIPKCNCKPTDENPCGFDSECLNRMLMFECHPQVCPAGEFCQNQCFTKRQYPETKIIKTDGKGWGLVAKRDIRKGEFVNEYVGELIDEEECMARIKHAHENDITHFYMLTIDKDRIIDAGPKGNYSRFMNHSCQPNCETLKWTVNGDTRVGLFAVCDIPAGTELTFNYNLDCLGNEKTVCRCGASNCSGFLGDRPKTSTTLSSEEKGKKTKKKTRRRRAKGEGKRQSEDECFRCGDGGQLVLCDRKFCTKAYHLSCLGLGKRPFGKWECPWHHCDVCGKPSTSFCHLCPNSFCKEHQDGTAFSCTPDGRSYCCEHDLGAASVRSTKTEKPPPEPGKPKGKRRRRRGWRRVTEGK

SMILES | pIC50
Nc1ncnc2c1ncn2Cc1cc(-c2ccc3c(c2)CCO3)ncc1N1CC[C@@H](F)[C@@H](N)C1 [Example 14, 9-((5-((3S,4R)-3-amino-4-fluoropiperidin-1-yl)-2-(2,3-dihydrobenzofuran-5-yl)pyridin-4-yl)methyl)-9H-purin-6-amine] | 6.00 to 8.00
COc1ccc(-c2cc(Cn3cnc4c(N)ncnc43)c(N3C[C@H](N)CC(F)(F)C3)cn2)cc1F [Example 16, (R)-9-((5-(5-amino-3,3-difluoropiperidin-1-yl)-2-(3-fluoro-4-methoxyphenyl)pyridin-4-yl)methyl)-9H-purin-6-amine] | 6.00 to 8.00
N#CC1CCN(c2cnc(-c3ccc(F)c(F)c3)cc2Cn2cnc3c(N)ncnc32)CC1N (stereo not shown) [Example 18, 3-amino-1-(4-((6-amino-9H-purin-9-yl)methyl)-6-(3,4-difluorophenyl)pyridin-3-yl)piperidine-4-carbonitrile] | < 6.00
COC[C@@]1(N)CCCN(c2cnc(-c3ccc(F)c(Cl)c3)cc2Cn2cnc3c(N)ncnc32)C1 [Example 28, (R)-9-((5-(3-amino-3-(methoxymethyl)piperidin-1-yl)-2-(3-chloro-4-fluorophenyl)pyridin-4-yl)methyl)-9H-purin-6-amine] | 8.00 to 9.00
COc1ccc(-c2cc(Cn3cnc4c(N)ncnc43)c(N3CCC[C@](N)(COC4CC4)C3)cn2)cc1F [Example 31, (R)-9-((5-(3-amino-3-(cyclopropoxymethyl)piperidin-1-yl)-2-(3-fluoro-4-methoxyphenyl)pyridin-4-yl)methyl)-9H-purin-6-amine] | 8.00 to 9.00
COCCC1(N)CCCN(c2cnc(-c3ccc(F)c(F)c3)cc2Cn2cnc3c(N)ncnc32)C1 (stereo not shown) [Example 60, 9-((5-(3-amino-3-(2-methoxyethyl)piperidin-1-yl)-2-(3,4-difluorophenyl)pyridin-4-yl)methyl)-9H-purin-6-amine] | 6.00 to 8.00
NC(=O)C[C@@]1(N)CCCN(c2cnc(-c3ccc(F)c(F)c3)cc2Cn2cnc3c(N)ncnc32)C1 [Example 62, (S)-2-(3-amino-1-(4-((6-amino-9H-purin-9-yl)methyl)-6-(3,4-difluorophenyl)pyridin-3-yl)piperidin-3-yl)acetamide] | 6.00 to 8.00
CN(C)C(=O)CC1(N)CCCN(c2cnc(-c3ccc(F)c(F)c3)cc2Cn2cnc3c(N)ncc(Cl)c32)C1 (stereo not shown) [Example 68, 2-(3-amino-1-(4-((4-amino-7-] | 6.00 to 8.00
COC(=O)C[C@@]1(N)CCCN(c2cnc(-c3cccc(F)c3)cc2Cn2cnc3c(N)ncnc32)C1 [Example 73, methyl (S)-2-(3-amino-1-(4-((6-amino-9H-purin-9-yl)methyl)-6-(3-fluorophenyl)pyridin-3-yl)piperidin-3-yl)acetate] | 6.00 to 8.00
Nc1ncnc2c1ncn2Cc1cc(-c2ccc(CNC(=O)CCl)cc2)ncc1N1CCCC(N)(CC(F)F)C1 (stereo not shown) [Example 75, N-(4-(5-(3-amino-3-(2,2-difluoroethyl)piperidin-1-yl)-4-((6-amino-9H-purin-9-yl)methyl)pyridin-2-yl)benzyl)-2-chloroacetamide] | 6.00 to 8.00
N#CCC1(N)CCCN(c2cnc(-c3ccc(F)c(F)c3)cc2Cn2cnc3c(N)ncnc32)C1 (stereo not shown) [Example 77, 2-(3-amino-1-(4-((6-amino-9H-purin-9-yl)methyl)-6-(3,4-difluorophenyl)pyridin-3-yl)piperidin-3-yl)acetonitrile] | < 6.00
Nc1ncnc2c1ncn2Cc1cc(-c2ccc(F)c(F)c2)ncc1N1CCC[C@](N)(C(=O)NC2CCOCC2)C1 [Example 82, (R)-3-amino-1-(4-((6-amino-9H-purin-9-yl)methyl)-6-(3,4-difluorophenyl)pyridin-3-yl)-N-(tetrahydro-2H-pyran-4-yl)piperidine-3-carboxamide] | 6.00 to 8.00
Nc1ncnc2c1ncn2Cc1cc(-c2ccc(F)c(F)c2)ncc1N1CCC[C@](N)(C(=O)N2CCCC2)C1 [Example 84, (R)-(3-amino-1-(4-((6-amino-9H-purin-9-yl)methyl)-6-(3,4-difluorophenyl)pyridin-3-yl)piperidin-3-yl)(pyrrolidin-1-yl)methanone] | 6.00 to 8.00
